Laboratory results as given in ChEMBL document CHEMBL1133808, “The discovery of sulfonylated dipeptides as potent VLA-4 antagonists” (Bioorg Med Chem Lett, 2001).

Key:
Integrin alpha-4/beta-1 [1] = target: T1, Integrin alpha-4/beta-1 (Homo sapiens, UniProt P05556+P13612); test: Inhibition of [125I]-VCAM-Ig binding to VLA-4 integrin of human Jurkat cells; assay type: cell-based
Integrin alpha-4/beta-1 [2] = target: T1, Integrin alpha-4/beta-1; test: Inhibition of [125I]VCAM-Ig binding to VLA-4 integrin of human Jurkat cells; assay type: cell-based
[3] = Plasma half-life in Sprague-Dawley rats; assay type: ADME, organism-based; conditions: rat
[4] = Compound was tested for protein binding in human plasma; assay type: ADME, cell-free; conditions: read-out: Protein binding (converted)
[5] = Oral bioavailability in Sprague-Dawley rats; assay type: ADME, organism-based; conditions: rat, in vivo
[6] = Plasma clearance in Sprague-Dawley rats; assay type: ADME, organism-based; conditions: rat, read-out: Clp
Integrin alpha-4/beta-1 [7] = target: T1, Integrin alpha-4/beta-1; test: Antagonistic activity against VLA-4 integrin of human jurkat cells using [125I]VCAM-Ig as radioligand; assay type: functional, cell-based
Integrin alpha-4/beta-7 [8] = target: T2, Integrin alpha-4/beta-7 (Homo sapiens, UniProt P13612+P26010); test: Inhibition of [125I]MAdCAM-Ig binding to alpha4-beta7 integrin of human RPMI-8866 cells; assay type: cell-based
T2 sequence (P13612 whole entry): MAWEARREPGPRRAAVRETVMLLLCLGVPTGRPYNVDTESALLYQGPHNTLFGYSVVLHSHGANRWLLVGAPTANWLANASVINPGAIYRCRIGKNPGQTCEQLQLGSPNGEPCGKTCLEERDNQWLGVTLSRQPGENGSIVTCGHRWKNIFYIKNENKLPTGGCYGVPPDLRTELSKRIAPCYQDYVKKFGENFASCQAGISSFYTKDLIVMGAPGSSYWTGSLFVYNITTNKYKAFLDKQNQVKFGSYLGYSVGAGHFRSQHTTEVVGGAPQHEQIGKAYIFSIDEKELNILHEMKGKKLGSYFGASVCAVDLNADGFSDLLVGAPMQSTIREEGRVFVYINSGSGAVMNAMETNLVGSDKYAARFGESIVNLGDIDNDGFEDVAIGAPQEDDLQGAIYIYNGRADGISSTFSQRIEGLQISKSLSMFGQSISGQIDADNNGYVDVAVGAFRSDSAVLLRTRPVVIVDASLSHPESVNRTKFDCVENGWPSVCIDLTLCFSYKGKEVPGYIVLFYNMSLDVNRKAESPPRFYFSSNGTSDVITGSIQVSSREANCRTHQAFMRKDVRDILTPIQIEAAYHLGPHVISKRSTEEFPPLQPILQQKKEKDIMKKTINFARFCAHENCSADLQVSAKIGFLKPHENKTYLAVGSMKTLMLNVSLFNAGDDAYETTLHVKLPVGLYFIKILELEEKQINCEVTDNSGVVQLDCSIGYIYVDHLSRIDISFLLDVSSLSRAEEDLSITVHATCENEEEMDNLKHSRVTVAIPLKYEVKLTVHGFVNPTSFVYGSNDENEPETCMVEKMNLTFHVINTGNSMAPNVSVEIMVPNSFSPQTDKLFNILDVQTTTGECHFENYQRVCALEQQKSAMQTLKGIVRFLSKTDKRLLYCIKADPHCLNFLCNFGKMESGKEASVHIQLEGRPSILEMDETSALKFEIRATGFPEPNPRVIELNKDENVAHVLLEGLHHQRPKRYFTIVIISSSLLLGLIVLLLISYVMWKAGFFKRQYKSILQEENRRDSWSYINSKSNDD
T2 sequence (P26010 whole entry): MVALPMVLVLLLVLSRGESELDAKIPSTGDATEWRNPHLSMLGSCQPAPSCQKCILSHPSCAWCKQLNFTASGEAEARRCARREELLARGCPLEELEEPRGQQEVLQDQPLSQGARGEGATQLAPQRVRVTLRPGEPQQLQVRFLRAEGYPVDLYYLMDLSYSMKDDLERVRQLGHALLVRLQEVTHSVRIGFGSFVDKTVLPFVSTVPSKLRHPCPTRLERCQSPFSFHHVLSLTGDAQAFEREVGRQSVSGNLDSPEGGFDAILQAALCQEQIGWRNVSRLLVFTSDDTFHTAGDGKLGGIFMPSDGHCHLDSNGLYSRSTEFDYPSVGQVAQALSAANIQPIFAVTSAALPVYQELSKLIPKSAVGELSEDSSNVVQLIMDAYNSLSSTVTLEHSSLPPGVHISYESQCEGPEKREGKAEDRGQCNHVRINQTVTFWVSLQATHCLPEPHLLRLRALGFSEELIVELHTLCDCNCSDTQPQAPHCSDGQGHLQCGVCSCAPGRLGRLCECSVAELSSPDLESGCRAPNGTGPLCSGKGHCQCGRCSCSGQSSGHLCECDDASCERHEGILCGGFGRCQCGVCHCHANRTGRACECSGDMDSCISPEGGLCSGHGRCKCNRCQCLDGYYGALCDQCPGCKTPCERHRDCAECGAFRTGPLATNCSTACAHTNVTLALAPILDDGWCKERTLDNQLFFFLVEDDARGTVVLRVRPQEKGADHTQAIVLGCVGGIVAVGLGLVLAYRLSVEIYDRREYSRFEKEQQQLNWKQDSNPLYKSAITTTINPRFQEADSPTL

[9] = Oral bioavailability in rat (Sprague-Dawley) (dose 1 mg/kg i.v.); assay type: ADME, organism-based; conditions: in vivo
[10] = Oral bioavailability in rat (Sprague-Dawley) (dose 2 mg/kg); assay type: ADME, organism-based; conditions: in vivo
Integrin alpha-4/beta-7 [11] = target: T2, Integrin alpha-4/beta-7; test: Inhibition of [125I]VCAM-Ig binding to alpha4-beta7 integrin of human RPMI-8866 cells; assay type: cell-based
[12] = Plasma clearance in Beagle dogs; assay type: ADME, organism-based, Canis lupus familiaris; conditions: dog, read-out: Clp
[13] = Plasma half-life in rhesus monkey; conditions: cercopithecidae
[14] = Compound was tested for protein binding in rat plasma; assay type: ADME, organism-based; conditions: read-out: Protein binding (converted)
[15] = Plasma half-life in Beagle dogs; assay type: ADME, organism-based, Canis lupus familiaris; conditions: dog
[16] = Plasma clearance in rhesus monkey; assay type: ADME, organism-based; conditions: cercopithecidae, read-out: Clp

T1 sequence (P05556 whole entry, one chain of several): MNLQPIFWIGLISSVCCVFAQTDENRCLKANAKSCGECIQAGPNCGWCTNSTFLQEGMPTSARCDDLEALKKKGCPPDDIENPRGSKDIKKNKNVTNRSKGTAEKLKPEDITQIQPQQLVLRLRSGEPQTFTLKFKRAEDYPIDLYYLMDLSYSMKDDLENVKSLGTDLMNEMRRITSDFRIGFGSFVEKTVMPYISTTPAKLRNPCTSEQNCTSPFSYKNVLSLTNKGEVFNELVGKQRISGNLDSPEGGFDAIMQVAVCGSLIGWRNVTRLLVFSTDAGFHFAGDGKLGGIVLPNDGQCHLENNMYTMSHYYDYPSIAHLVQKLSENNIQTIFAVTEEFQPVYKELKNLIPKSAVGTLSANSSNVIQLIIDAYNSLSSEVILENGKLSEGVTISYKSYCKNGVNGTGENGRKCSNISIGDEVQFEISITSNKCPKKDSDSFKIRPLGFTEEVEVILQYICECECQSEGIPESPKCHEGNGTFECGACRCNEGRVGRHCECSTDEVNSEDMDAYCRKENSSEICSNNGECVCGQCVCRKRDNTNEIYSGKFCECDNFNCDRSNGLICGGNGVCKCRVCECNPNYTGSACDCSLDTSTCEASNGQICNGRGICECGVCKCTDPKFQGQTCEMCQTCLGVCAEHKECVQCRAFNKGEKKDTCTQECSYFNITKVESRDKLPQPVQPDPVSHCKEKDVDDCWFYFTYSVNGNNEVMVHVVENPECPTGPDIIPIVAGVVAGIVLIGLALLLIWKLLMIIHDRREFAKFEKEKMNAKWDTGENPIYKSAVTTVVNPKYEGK

Structure (SMILES) | half-life [3] [h] | clearance [6] [mL/min/kg] | IC50 (Integrin alpha-4/beta-1 [7]) [nM] | IC50 (Integrin alpha-4/beta-7 [8]) [nM] | further results
COc1ccc(S(=O)(=O)N2Cc3ccccc3C[C@H]2C(=O)N[C@@H](CCC(=O)O)C(=O)O)cc1OC |  |  |  |  | IC50 (Integrin alpha-4/beta-1 [1]): 257 nM
CCCC[C@H](NC(=O)[C@@H]1Cc2ccccc2CN1S(=O)(=O)c1ccc(OC)c(OC)c1)C(=O)O |  |  |  |  | IC50 (Integrin alpha-4/beta-1 [2]): 58 nM
O=C(O)[C@H](Cc1ccc2ccccc2c1)NC(=O)[C@@H]1CCCN1S(=O)(=O)c1cc(Cl)cc(Cl)c1 | 0.6 | 49 | 0.5 |  | fraction unbound [4]: 0.004; bioavailability [5]: 15%
N#Cc1ccccc1-c1ccc(C[C@H](NC(=O)[C@@H]2CCCN2S(=O)(=O)c2cc(Cl)cc(Cl)c2)C(=O)O)cc1 |  | 21 | 0.46 |  | bioavailability [9]: 4%; bioavailability [10]: 4%

Continued, in another order:

half-life [3] [h] | clearance [6] [mL/min/kg] | IC50 (Integrin alpha-4/beta-1 [7]) [nM] | IC50 (Integrin alpha-4/beta-7 [8]) [nM] | Structure (SMILES) | further results
0.5 | 71 | 0.11 | 52.5 | COc1cccnc1-c1ccc(C[C@H](NC(=O)[C@]2(C)CCCN2S(=O)(=O)c2cc(Cl)cc(Cl)c2)C(=O)O)cc1 | 
 | 39 | 0.64 |  | COc1ccccc1-c1ccc(C[C@H](NC(=O)[C@@H]2CCCN2S(=O)(=O)c2cc(Cl)cc(Cl)c2)C(=O)O)cc1 | bioavailability [9]: 3%; bioavailability [10]: 3%
1.5 | > 100 | 0.07 | 14.2 | COc1cccc(OC)c1-c1ccc(C[C@H](NC(=O)[C@]2(C)CCN2S(=O)(=O)c2cc(Cl)cc(Cl)c2)C(=O)O)cc1 | 
2.2 | > 100 | 0.08 | 11.5 | COc1cccc(OC)c1-c1ccc(C[C@H](NC(=O)[C@]2(C)CCCN2S(=O)(=O)c2cc(Cl)cc(Cl)c2)C(=O)O)cc1 | IC50 (Integrin alpha-4/beta-7 [11]): 2.98 nM
1.5 |  | 0.92 |  | C[C@@]1(C(=O)N[C@@H](Cc2ccc(-c3ccccc3C#N)cc2)C(=O)O)CCCN1S(=O)(=O)c1cc(Cl)cc(Cl)c1 | IC50 (Integrin alpha-4/beta-7 [11]): 345 nM; clearance [12]: 25 mL/min/kg; half-life [13]: 5.3 h; fraction unbound [4]: 0.005; fraction unbound [14]: 0.005; half-life [15]: 3.4 h; clearance [16]: 12 mL/min/kg
